Where two headings read alike, the source gives them in different places.
Legend:
[1] = biological target: T1, σ1 receptors (Cavia porcellus, UniProt Q60492); test: σ1 receptor competition binding; design: species or system guinea pig; details: read-out: σ1
T1 construct: Crude P2 membranes were prepared from guinea pig brain, rat brain, or rat liver; from tissue; host or cells: guinea pig brain (crude P2 membranes)

[2] = biological target: T2, σ2 sites (Rattus norvegicus, UniProt Q5U3Y7); test: σ2 receptor competition binding
T2 construct: Crude P2 membranes were prepared from guinea pig brain, rat brain, or rat liver; from tissue; host or cells: rat liver (crude P2 membranes)
T2 sequence (Q5U3Y7 1-176): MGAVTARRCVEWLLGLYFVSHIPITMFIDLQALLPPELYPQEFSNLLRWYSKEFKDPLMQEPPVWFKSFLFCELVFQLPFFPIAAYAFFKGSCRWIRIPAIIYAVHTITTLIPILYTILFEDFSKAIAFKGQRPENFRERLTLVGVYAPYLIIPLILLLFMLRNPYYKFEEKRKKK

[3] = tested on: σ1 receptors; test: Antisense oligodeoxynucleotide (i.c.v.) against cocaine-induced convulsions; assay type: in vivo, mouse
[4] = tested on: σ1 receptors; test: Antisense oligodeoxynucleotide (i.c.v.), basal locomotor activity; assay type: in vivo, mouse; details: i.c.v. antisense treatment, 30 min before the cocaine challenge
[5] = tested on: σ1 receptors; test: Antisense oligodeoxynucleotide (i.c.v.) against locomotor stimulatory effects of cocaine; assay type: in vivo, mouse
[6] = biological target: T3, Dopamine (D2) receptors (Rattus norvegicus, UniProt P61169); test: Dopamine D2 receptor competition binding ([3H](−)sulpiride); details: rat brain homogenates, [3H](−)sulpiride; read-out: Dopamine (D2)
T3 construct: from tissue; host or cells: rat brain homogenate / P2 membranes

[7] = biological target: PCP sites on NMDA receptors (Rattus norvegicus, UniProt P35439); test: PCP site competition binding ([3H]TCP); details: rat brain homogenates, [3H]TCP; read-out: NMDA (PCP)
[8] = biological target: 5-HT2 receptors (Rattus norvegicus, UniProt P14842); test: 5-HT2 receptor competition binding ([3H]ketanserin); details: rat brain homogenates, [3H]ketanserin; read-out: 5-HT2
[9] = tested on: Male, Swiss Webster mice; test: Attenuation of cocaine-induced locomotor activity; assay type: in vivo; details: same ligand doses as baseline test, 15 min before cocaine 10 mg/kg i.p.; 30 min; ANOVA
[10] = tested on: Male, Swiss Webster mice; test: Effects of sigma ligands alone on baseline locomotor activity; assay type: in vivo; details: 30 min; i.p. mg/kg: BD1008 1, BD1067 5, BD1047 30, LR172 5, BD1018 30, BD1063 30, LR132 30, LR176 10, YZ011 0.1, YZ027 1, YZ029 5
[11] = Table 5, dopamine transporter ligands
[12] = Table 1, [3H](+)-pentazocine, guinea pig brain, mean±SEM, minimum of two independent assays
[13] = Table 4, second series, [3H](+)-pentazocine, guinea pig brain
[14] = Table 1, [3H]DTG plus dextrallorphan, rat liver, mean±SEM, minimum of two independent assays
[15] = Table 4, second series, [3H]DTG plus dextrallorphan, rat liver
[16] = NYU sequences, 10 μg/5 μl i.c.v. on Days 1, 2 and 4, cocaine 60 mg/kg i.p. on Day 5

5-HT2 receptors, sequence (P14842 whole entry): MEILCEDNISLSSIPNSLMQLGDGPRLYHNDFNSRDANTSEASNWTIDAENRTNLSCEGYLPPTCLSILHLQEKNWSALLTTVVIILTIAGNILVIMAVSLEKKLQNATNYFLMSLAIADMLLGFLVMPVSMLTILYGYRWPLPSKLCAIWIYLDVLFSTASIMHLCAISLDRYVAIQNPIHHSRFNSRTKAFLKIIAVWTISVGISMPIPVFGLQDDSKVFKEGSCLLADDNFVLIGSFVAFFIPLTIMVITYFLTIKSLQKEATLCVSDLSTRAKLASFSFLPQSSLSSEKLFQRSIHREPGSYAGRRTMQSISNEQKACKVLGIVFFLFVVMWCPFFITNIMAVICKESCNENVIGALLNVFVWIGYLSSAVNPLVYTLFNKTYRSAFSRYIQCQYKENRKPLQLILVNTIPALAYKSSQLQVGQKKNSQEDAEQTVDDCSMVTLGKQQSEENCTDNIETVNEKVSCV
T1 sequence (Q60492 whole entry): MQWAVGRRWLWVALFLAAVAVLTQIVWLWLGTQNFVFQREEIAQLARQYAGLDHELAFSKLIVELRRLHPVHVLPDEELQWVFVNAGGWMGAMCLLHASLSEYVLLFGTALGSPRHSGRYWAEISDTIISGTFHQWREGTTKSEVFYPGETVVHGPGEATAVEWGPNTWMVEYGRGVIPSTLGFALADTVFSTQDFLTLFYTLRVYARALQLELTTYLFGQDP
T3 sequence (P61169 whole entry): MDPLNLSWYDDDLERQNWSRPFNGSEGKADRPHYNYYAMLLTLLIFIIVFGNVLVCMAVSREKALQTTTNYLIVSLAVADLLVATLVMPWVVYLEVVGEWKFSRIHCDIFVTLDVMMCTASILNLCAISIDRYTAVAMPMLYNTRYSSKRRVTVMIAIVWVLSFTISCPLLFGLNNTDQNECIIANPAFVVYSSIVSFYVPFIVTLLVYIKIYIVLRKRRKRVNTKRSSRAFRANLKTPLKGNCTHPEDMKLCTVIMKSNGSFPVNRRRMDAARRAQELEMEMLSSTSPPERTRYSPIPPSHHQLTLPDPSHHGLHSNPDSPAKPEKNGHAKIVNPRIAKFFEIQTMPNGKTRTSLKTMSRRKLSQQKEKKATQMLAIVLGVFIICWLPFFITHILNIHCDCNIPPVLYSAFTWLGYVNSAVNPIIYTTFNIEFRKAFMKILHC

In the case of `Fc1ccc(C(OCCN2CCN(CCCc3ccccc3)CC2)c2ccc(F)cc2)cc1` [GBR 12909, reference compound], the Ki [1, 11] is reported as 132 ± 31 nM and the Ki [2, 11] is reported as 133 ± 37 nM.
`Clc1ccc(CCN2CCN(CCCc3ccccc3)CC2)cc1Cl` [YZ-069-2] showed a Ki [1, 12] of 2 ± 0.2 nM, a Ki [1, 13] of 2 ± 0.2 nM and a Ki [2, 14] of 39 ± 2 nM. The Ki [2, 15] was 39 ± 2 nM.
In the case of “5′-GAGGTCCCGACCACACACAGG-3′ (all phosphorothioate, sugars by position and methylation of C not given here) [mismatch]”, the “effect on cocaine-induced convulsions” value [3, 16] is reported as “responses no different from the saline-treated animals”.
“5′-CCCACGGCATCCCAGCGG-3′ (all phosphorothioate, sugars by position and methylation of C not given here) [McGill antisense, 18-mer phosphorothioate antisense oligodeoxynucleotide targeting the 5′-end of the σ1 receptor (Kitaichi et al., 1997)]” was tested, and the basal locomotor activity [4] was “no effects on basal locomotor activity”, the “effect on locomotor stimulatory effects of cocaine” value ([5]; McGill, 10 nmol/5 μl i.c.v. every 12 hours, four times, cocaine 10 mg/kg i.p.) was “attenuates the locomotor stimulatory effects of cocaine” and the “effect on cocaine-induced convulsions” value ([3]; McGill, 10 nmol/5 μl i.c.v. every 12 hours, four times, cocaine 60 mg/kg i.p. 12 hours after last) was “significant attenuation of cocaine-induced convulsions”.
Work on `COc1ccc(CC(=O)N(C)CCN2CCCC2)cc1` [YZ-007] yielded an IC50 [6] of over 10000 nM, a Ki [1, 12] of 2220 ± 61 nM and an IC50 [7] of over 10000 nM. The IC50 [8] was over 10000 nM and the Ki [2, 14] was 1220 ± 95 nM.
With `COc1ccccc1CC(=O)N1CCN(CCCc2ccccc2)CC1` [YZ-048-2] the Ki [1, 12] was 56 ± 8 nM, the Ki [1, 13] was 56 ± 8 nM and the Ki [2, 14] was 294 ± 10 nM. For the same molecule, the Ki [2, 15] was 294 ± 10 nM.
In the case of `COc1cccc(CC(=O)N(C)CCN2CCCC2)c1` [YZ-005], the IC50 [6] is reported as over 10000 nM, the Ki [1, 12] is reported as 3101 ± 20 nM and the IC50 [7] is reported as over 10000 nM. The IC50 [8] was over 10000 nM and the Ki [2, 14] was 1110 ± 55 nM.
With `CN(CCc1cccc([N+](=O)[O-])c1)CCN1CCCC1` [YZ-027] the IC50 [6] was over 10000 nM, the “cocaine stimulated locomotor activity after pre-treatment” value [9] was “significant reduction in cocaine stimulated locomotor activity” and the Ki [1, 12] was 6 ± 2 nM. The IC50 [7] was over 10000 nM, the “baseline horizontal locomotor activity versus saline” value [10] was “no significant difference” and the IC50 [8] was over 10000 nM. It also gave a Ki [2, 14] of 95 ± 0.7 nM.
`CN(CCc1ccc([N+](=O)[O-])cc1)CCN1CCCC1` [YZ-029] was tested, and the IC50 [6] was over 10000 nM, the “cocaine stimulated locomotor activity after pre-treatment” value [9] was “significant reduction in cocaine stimulated locomotor activity” and the Ki [1, 12] was 4 ± 0.9 nM. For the same molecule, the IC50 [7] was over 10000 nM, the “baseline horizontal locomotor activity versus saline” value [10] was “no significant difference” and the IC50 [8] was over 10000 nM. The Ki [2, 14] was 63 ± 0.1 nM.
In the case of `C[C@@H]1CN(CCCn2c3ccccc3c3ccccc32)C[C@H](C)N1` [Rimcazole, reference compound], the Ki [2, 14] is reported as 1160 ± 160 nM.
For `O=C(Cc1ccc([N+](=O)[O-])cc1)N1CCN(CCCc2ccccc2)CC1` [YZ-155-2], the Ki [1, 12] was 14 ± 1 nM, the Ki [1, 13] was 14 ± 1 nM and the Ki [2, 14] was 167 ± 4 nM. For the same molecule, the Ki [2, 15] was 167 ± 4 nM.
Work on `CN(CCc1cccc(N)c1)CCN1CCCC1` [YZ-033] yielded an IC50 [6] of over 10000 nM, a Ki [1, 12] of 579 ± 35 nM and an IC50 [7] of over 10000 nM. For the same molecule, the IC50 [8] was over 10000 nM and the Ki [2, 14] was 2240 ± 260 nM.
`Nc1ccccc1CCN1CCN(CCCc2ccccc2)CC1` [YZ-165-2-2] was tested, and the Ki [1, 12] was 5 ± 0.1 nM, the Ki [1, 13] was 5 ± 0.1 nM and the Ki [2, 14] was 18 ± 0.2 nM. It also gave a Ki [2, 15] of 18 ± 0.2 nM.
With “5′-GAGTGCCCAGCCACAACCAGG-3′ (all phosphorothioate, sugars by position and methylation of C not given here) [NYU antisense, 21-mer phosphorothioate antisense oligodeoxynucleotide against mouse σ1 receptors (King et al., 1997)]” the basal locomotor activity [4] was “no effects on basal locomotor activity”, the “effect on locomotor stimulatory effects of cocaine” value ([5]; NYU, 10 μg/5 μl i.c.v. on Days 1, 2 and 4, cocaine 10 mg/kg i.p. on Day 5) was “attenuates the locomotor stimulatory effects of cocaine” and the “effect on cocaine-induced convulsions” value [3, 16] was “protected against the convulsive effects of cocaine”.

From US20030171347A1, “Sigma receptor antagonists having anti-cocaine properties and uses thereof” (priority 1998, published 2003)
